Experiments:
3T3-L1 preadipocytes = experiment: 3T3-L1 Adipocyte Differentiation Assay (ADPDIFF), Test A; format: cell-based; settings: BODIPY lipid fluorescence, reported as % of BRL 49653 at 5 μM
Protocol: Cells are replenished with FBS containing media on day 5 of post-drug treatment and incubated for additional 4-6 days. Cells are stained with BODIPY a fluorescent lipophilic stain to quantitate the lipid content of the cells. The assay is optimized for a 96-well plate format. Approximately after 10 days of post-drug treatment, cells are fixed in 3% formalin solution for 15 min followed by staining with BODIPY (80 μg/ml) for 20 min at room temperature. The plate is then put through the CYTOFLUOR instrument to measure the fluorescence of BODIPY (excitation=485/20; emission=530/25).

[1] = Blood Glucose Measurement (Glucose Δ), Test D; format: in vivo, mice; set-up: key to Glucose Δ: change in blood glucose, mg/dL; settings: for Glucose Δ: 4 hours post dose, 4 hour fasted animals, tail vein whole blood; for % BRL (in vivo, beside Glucose Δ): glucose change relative to BRL
Protocol: Test D—Blood Glucose Measurement (Glucose Δ) Glucose is obtained 4 hours post dose via tail vein stick (5 μl whole blood) in awake, 4 hour fasted animals. Blood is drawn by capillary action into a glucose cuvette and read in a HemoCue Glucose Analyzer (Ryan Diagnostics). Blood is diluted 1:2 with saline if glucose levels are greater than 400 mg/dl (meter high range) and results multiplied by two.

[2] = tested on: endogenous nuclear receptors in CV-1 cells; experiment: CV-1 Native Receptors Transcription Assay (MKNRCV1), Test C; format: cell-based, African green monkey; settings: for MKNRCV1 % BRL @ 25 μM: percent activity of BRL 49653; for EC50: Chlorocebus sabaeus, CV-1 cells, 48 hours, unit inferred
[3] = tested on: CV-1 cells (FATP promoter luciferase reporter, 300 nM BRL); experiment: ANTCV1 Antagonist Transcription Assay, Test B; format: cell-based, African green monkey; settings: Chlorocebus sabaeus, 25 μM test compound with 300 nM BRL, 48 hrs, % BRL inhibition, read-out: ANTCV1 INHIB @ 25 μM

Row | SMILES | ADPDIFF % BRL @ 5 μM (3T3-L1 preadipocytes) [% BRL] | Glucose Δ [1] | % BRL (in vivo, beside Glucose Δ) [1] [% BRL] | MKNRCV1 % BRL @ 25 μM [2] [% BRL] | EC50 [2] [nM] | inhibition at 25 µM [3] [%]
1 | Cc1oc(-c2ccccc2)nc1CCOc1ccc(CC(C(=O)O)n2cccc2)cc1 (stereo not shown) | 67 | −196.0 | 109.4 | 86 | – | –
2 | Cc1oc(-c2ccccc2)nc1CCOc1ccc(C[C@@H](C(=O)O)n2ccc(-c3ccccc3)c2)cc1 [drawing 241] | 125 | −194.0 | 83.3 | 54 | 900 | 29
3 | Cc1oc(-c2ccccc2)nc1CCOc1ccc(CC(C(=O)O)c2ccccc2)cc1 (stereo not shown) | 94 | 49.2 | −35.5 | 109 | 300 | -48
4 | Cc1oc(-c2ccccc2)nc1CCOc1ccc(CC(C(=O)O)n2cccc2C(=O)c2ccccc2)cc1 (stereo not shown) | 33 | 108.6 | −50.3 | 46 | 12900 | –
5 | CN(CCOc1ccc(CC(C(=O)O)c2ccccc2)cc1)c1nc2ccccc2o1.Cl (stereo not shown) | 109 | 172.0 | −52.0 | 91 | 1000 | -45
6 | Cc1oc(-c2ccccc2)nc1CC#Cc1ccc(C[C@@H](C(=O)O)n2cccc2)cc1 | 100 | 62.0 | −45.3 | 94 | – | –
7 | Cc1oc(-c2ccccc2)nc1CCOc1ccc(C[C@@H](C(=O)O)n2ccc(Br)c2)cc1 | 84 | – | – | 85 | 60 | -57.5
8 | COC(=O)[C@H](Cc1ccc(/C=C/CN2CCC(c3ccccc3)CC2)cc1)n1cccc1 | 32 | – | – | 47 | – | 25
9 | O=C(O)[C@H](Cc1ccc(CCCN2CCC(c3ccccc3)CC2)cc1)n1cccc1 [drawing 293] | 38 | – | – | 22 | – | 50
10 | CC(=O)c1cccn1[C@@H](Cc1ccc(OCc2ccccc2F)cc1)C(=O)O | 3 | – | – | 25 | – | -40
11 | Cc1oc(-c2ccccc2)nc1CCOc1ccc(CC(C)(C)C(=O)O)cc1 [drawing 217] | 131 | – | – | 34 | – | 59
12 | O=C(O)[C@H](Cc1ccc(OCCCc2ccncc2)cc1)n1cccc1 | 3 | – | – | 44 | – | 3
13 | Cc1oc(-c2ccccc2)nc1CCOc1ccc(C[C@@H](C(=O)O)n2c(C)ccc2C)cc1 | 26 | – | – | 11 | – | 80
14 | CN(CCOc1ccc(C[C@@H](C(=O)O)n2cccc2)cc1)c1ccnc2cc(Cl)ccc12 | 1 | – | – | 83 | – | -87
15 | O=C(O)[C@H](Cc1ccc(OCc2ccccc2F)cc1)n1cccc1 | 21 | – | – | 92 | 1400 | -46
16 | CN(CC#Cc1ccc(CC(C(=O)O)n2cccc2)cc1)c1ccccn1 (stereo not shown) | 6 | – | – | 71 | – | -32

Row | SMILES | ADPDIFF % BRL @ 5 μM (3T3-L1 preadipocytes) [% BRL] | Glucose Δ [1] | % BRL (in vivo, beside Glucose Δ) [1] [% BRL] | MKNRCV1 % BRL @ 25 μM [2] [% BRL] | EC50 [2] [nM] | inhibition at 25 µM [3] [%]
17 | COC(=O)[C@H](Cc1ccc(C#CCc2nc(-c3ccccc3)oc2C)cc1)n1cccc1 | 90 | – | – | 123 | 100 | -114
18 | Cc1oc(-c2ccccc2)nc1CCOc1ccc(CC(C)(C(=O)O)c2ccccc2)cc1 (stereo not shown) [drawing 218] | 99 | – | – | 44 | 13000 | 65
19 | CN(CCOc1ccc(CC(C(=O)O)n2ccc(C(=O)C3CCCCC3)c2)cc1)c1nc2ccccc2o1 (stereo not shown) | 112 | – | – | 65 | 11100 | 4
20 | CCc1nnc(C(Cc2ccc(OCCc3nc(-c4ccccc4)oc3C)cc2)c2ccccc2)o1 (stereo not shown) [drawing 225] | 161 | – | – | 61 | – | 47
21 | Cc1oc(-c2ccccc2)nc1CCOc1ccc(C[C@@H](C(=O)NS(=O)(=O)c2ccccc2)n2cccc2)cc1 | 90 | – | – | 101 | 3300 | -117
22 | O=C(O)[C@H](Cc1ccc(/C=C/CN2CCC(c3ccccc3)CC2)cc1)n1cccc1 [drawing 292] | 183 | – | – | 40 | – | 44
23 | Cc1oc(-c2ccccc2)nc1CCOc1ccc(CC(F)(C(=O)O)c2ccccc2)cc1 (stereo not shown) [drawing 216] | 122 | – | – | 63 | 9500 | 37
24 | COC(=O)[C@H](Cc1ccc(/C=C/CN(C)c2ccccc2)cc1)n1cccc1 | 110 | – | – | 96 | 700 | 2
25 | CN(CCCc1ccc(C[C@@H](C(=O)O)n2cccc2)cc1)c1ccccc1 | 61 | 63.0 | −27.0 | 68 | – | –
26 | Cc1oc(-c2ccccc2)nc1CCCc1ccc(C[C@@H](C(=O)O)n2cccc2)cc1 | 62 | −166.6 | 121.8 | 69 | – | –
27 | O=C(O)[C@H](Cc1ccc(C#CCN2CCC(c3ccccc3)CC2)cc1)n1cccc1 [drawing 288] | 112 | – | – | 78 | 1300 | -42
28 | COC(=O)[C@H](Cc1ccc(C#CCN(C)c2ccccn2)cc1)n1cccc1 | 29 | – | – | 38 | 5600 | 71
29 | Cc1oc(-c2ccccc2)nc1CCOc1ccc(CC(C(=O)O)n2ccc(C(=O)C3CCCCC3)c2)cc1 (stereo not shown) | 82 | – | – | 83 | 4700 | -12
30 | Cc1oc(-c2ccccc2)nc1CCOc1ccc(C[C@@H](C(=O)O)n2c(C)cc(C(=O)C(F)(F)F)c2C)cc1 | 2 | – | – | 28 | 16000 | 12
31 | CCCc1nnc([C@H](Cc2ccc(OCCc3nc(-c4ccccc4)oc3C)cc2)n2cccc2)o1 | 94 | – | – | 0 | – | 84
32 | O=C(O)[C@H](Cc1ccc(OCCc2ccccc2C(F)(F)F)cc1)n1cccc1 | 112 | – | – | 80 | 400 | -27
